Assays:
soybean = test: Test B pre/postemergence soybean; format: in vivo, Glycine max
Summary of the method: (§1)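 Herbicidal effect was estimated by eye on a ten-point control scale after plants spent twelve to sixteen days in a greenhouse following soil or foliar treatment. Foliar sprays targeted plants at one to four leaves; all doses were formulated in a non-phytotoxic solvent with surfactant.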

sugar beet = test: Test B pre/postemergence sugar beet; format: in vivo, Beta vulgaris
Summary of the method: as §1

crabgrass = test: Test B pre/postemergence crabgrass; format: in vivo, Digitaria sanguinalis
Summary of the method: as §1

giant foxtail = test: Test B pre/postemergence giant foxtail; format: in vivo, Setaria faberii
Summary of the method: as §1

[1] = Postemergence, Rate 62 g/ha, scale 0 to 10, 0 is no effect, 10 is complete control
[2] = Postemergence, Rate 250 g/ha, scale 0 to 10, 0 no effect, 10 complete control
[3] = Preemergence, Rate 62 g/ha, scale 0 to 10, 0 is no effect, 10 is complete control
[4] = Preemergence, Rate 125 g/ha, scale 0 to 10 (0 no effect, 10 complete control)
[5] = Preemergence, Rate 250 g/ha, scale of 0 to 10 where 0 is no effect and 10 is complete control
[6] = Preemergence, Rate 500 g/ha, scale 0 (no effect) to 10 (complete control)
[7] = Rate 125 g/ha, Postemergence, scale 0 to 10, 0 no effect, 10 complete control
[8] = Rate 500 g/ha, Postemergence, 0 to 10 scale (0 no effect, 10 complete control)
[9] = Preemergence, Rate 31 g/ha, visual rating, scale 0 to 10 (0 no effect, 10 complete control)
[10] = Rate 31 g/ha, Postemergence, scale 0 to 10
[11] = Preemergence, Rate 62 g/ha, scale 0 to 10 (0 no effect, 10 complete control)
[12] = Rate 500 g/ha, Postemergence, scale 0 to 10, 0 no effect, 10 complete control

SMILES | Soybean plant response rating (soybean; [1]) | Soybean plant response rating (soybean; [2]) | Plant response rating, Soybean (soybean; [4]) | Plant response rating, Soybean (soybean; [5]) | Soybean plant response rating (soybean; [7]) | Sugarbeets plant response rating (sugar beet; [1]) | Sugarbeets plant response rating (sugar beet; [2]) | Plant response rating, Sugarbeets (sugar beet; [4]) | Plant response rating, Sugarbeets (sugar beet; [5]) | Sugarbeets plant response rating (sugar beet; [7]) | Crabgrass plant response rating (crabgrass; [1]) | Crabgrass plant response rating (crabgrass; [2]) | Plant response rating, Crabgrass (crabgrass; [4]) | Plant response rating, Crabgrass (crabgrass; [5]) | Crabgrass plant response rating (crabgrass; [7]) | Giant foxtail plant response rating (giant foxtail; [1]) | Giant foxtail plant response rating (giant foxtail; [2]) | Plant response rating, Giant foxtail (giant foxtail; [4]) | Plant response rating, Giant foxtail (giant foxtail; [5]) | Giant foxtail plant response rating (giant foxtail; [7]) | other results
Cc1ccc(-n2c(=O)on(C(=O)N(c3ccc(F)cc3F)C(C)C)c2=O)c(C)c1 [Compound 24] | 3 | 3 | 0 | 0 | 3 | 0 | 0 | 3 | 4 | 0 | 2 | 9 | 6 | 9 | 8 | 0 | 3 | 7 | 9 | 2 | Plant response rating, Soybean (soybean; [3]): 0; Soybean plant response rating (soybean; [6]): 2; Plant response rating, Sugarbeets (sugar beet; [3]): 0; Sugarbeets plant response rating (sugar beet; [6]): 9; Plant response rating, Crabgrass (crabgrass; [3]): 0; Crabgrass plant response rating (crabgrass; [6]): 10; Crabgrass plant response rating (crabgrass; [8]): 10; Plant response rating, Giant foxtail (giant foxtail; [3]): 6; Giant foxtail plant response rating (giant foxtail; [6]): 9; Giant foxtail plant response rating (giant foxtail; [8]): 8
COc1ccc(-n2c(=O)on(C(=O)N(c3ccc(F)cc3)C(C)C)c2=O)c(OC)c1 [Compound 33] | 2 | 3 | 0 | 0 | 3 | 0 | 6 | 0 | 0 | 2 | 1 | 2 | 3 | 7 | 2 | 0 | 3 | 6 | 9 | 1 | Soybean plant response rating (soybean; [9]): 0; Plant response rating, Soybean (soybean; [3]): 0; Sugarbeets plant response rating (sugar beet; [9]): 0; Plant response rating, Sugarbeets (sugar beet; [3]): 0; Crabgrass plant response rating (crabgrass; [9]): 3; Plant response rating, Crabgrass (crabgrass; [3]): 3; Crabgrass plant response rating (crabgrass; [10]): 0; Giant foxtail plant response rating (giant foxtail; [9]): 3; Plant response rating, Giant foxtail (giant foxtail; [3]): 4; Giant foxtail plant response rating (giant foxtail; [10]): 0
COc1cccc(C)c1-n1c(=O)on(C(=O)N(c2ccc(F)cc2)C(C)C)c1=O [Compound 62] | 1 | 2 | 0 | 0 | 1 | 0 | 0 | 0 | 0 | 0 | 0 | 0 | 3 | 6 | 0 | 0 | 0 | 5 | 9 | 0 | Soybean plant response rating (soybean; [11]): 0; Soybean plant response rating (soybean; [6]): 0; Soybean plant response rating (soybean; [12]): 3; Sugarbeets plant response rating (sugar beet; [11]): 0; Sugarbeets plant response rating (sugar beet; [6]): 0; Sugarbeets plant response rating (sugar beet; [12]): 5; Crabgrass plant response rating (crabgrass; [11]): 2; Crabgrass plant response rating (crabgrass; [6]): 9; Crabgrass plant response rating (crabgrass; [12]): 7; Giant foxtail plant response rating (giant foxtail; [11]): 5; Giant foxtail plant response rating (giant foxtail; [6]): 10; Giant foxtail plant response rating (giant foxtail; [12]): 2
CCN(Cc1ccccc1)C(=O)n1oc(=O)n(-c2ccccc2C)c1=O [Compound 71] | 0 | 0 | 0 | 0 | 0 | 0 | 0 | 0 | 0 | 0 | 0 | 0 | 0 | 0 | 0 | 0 | 0 | 0 | 0 | 0 | Soybean plant response rating (soybean; [11]): 0; Soybean plant response rating (soybean; [6]): 0; Soybean plant response rating (soybean; [12]): 0; Sugarbeets plant response rating (sugar beet; [11]): 0; Sugarbeets plant response rating (sugar beet; [6]): 0; Sugarbeets plant response rating (sugar beet; [12]): 0; Crabgrass plant response rating (crabgrass; [11]): 0; Crabgrass plant response rating (crabgrass; [6]): 0; Crabgrass plant response rating (crabgrass; [12]): 0; Giant foxtail plant response rating (giant foxtail; [11]): 0; Giant foxtail plant response rating (giant foxtail; [6]): 0; Giant foxtail plant response rating (giant foxtail; [12]): 0
COc1cccc(C)c1-n1c(=O)on(C(=O)N(c2ccccc2)C(C)C)c1=O [Compound 73] | 0 | 3 | 0 | 0 | 0 | 0 | 0 | 0 | 0 | 0 | 0 | 2 | 5 | 8 | 0 | 0 | 2 | 7 | 9 | 0 | Soybean plant response rating (soybean; [11]): 0; Soybean plant response rating (soybean; [6]): 0; Soybean plant response rating (soybean; [12]): 3; Sugarbeets plant response rating (sugar beet; [11]): 0; Sugarbeets plant response rating (sugar beet; [6]): 0; Sugarbeets plant response rating (sugar beet; [12]): 0; Crabgrass plant response rating (crabgrass; [11]): 1; Crabgrass plant response rating (crabgrass; [6]): 9; Crabgrass plant response rating (crabgrass; [12]): 6; Giant foxtail plant response rating (giant foxtail; [11]): 2; Giant foxtail plant response rating (giant foxtail; [6]): 10; Giant foxtail plant response rating (giant foxtail; [12]): 4
